Measured values as given in paper PMC6167002 (Journal of Medicinal Chemistry, 2018).
pEC50, pIC50: −log10 of the molar value.

Tests used:
[1] = tested on: T1, T. brucei; assay: microbe, parasite or virus in culture; set-up: species or system T. b. brucei s427 bloodstream form; bloodstream T. b. brucei viability, resazurin fluorescence; conditions: Trypanosoma brucei, 73 h
T1 construct: s427
Procedure: T.brucei cell viability assays were carried out as described previously.[6] In brief, bloodstream T. b. brucei s427 was cultured at 37 °C in modified HMI9 medium (56 μM 1-thioglycerol was substituted for 200 μM 2-mercaptoethanol) and quantified using a hemocytometer. Cell culture plates were stamped with 1 μL of an appropriate concentration of test compound in DMSO followed by the addition of 200 μL of trypanosome culture (10^4 cells ml^–1) to each well except for one column that received media only. Culture plates of T. brucei cells were incubated at 37 °C in an atmosphere of 5% CO2 for 69 h before the addition of 20 μL of resazurin (final concentration, 50 μM). After a further 4 h incubation, fluorescence was measured (excitation 528 nm; emission 590 nm) using a BioTek flx800 plate reader.

[2] = biological target: T2, TbNMT (Trypanosoma brucei N-myristoyltransferase) (Trypanosoma brucei, UniProt Q388H8); assay: scintillation proximity assay with [3H]myristoyl-CoA and biotinylated CAP5.[…] peptide; assay type: biochemical
T2 construct: gene Tb10.61.2550
T2 sequence (Q388H8 entry or part of it): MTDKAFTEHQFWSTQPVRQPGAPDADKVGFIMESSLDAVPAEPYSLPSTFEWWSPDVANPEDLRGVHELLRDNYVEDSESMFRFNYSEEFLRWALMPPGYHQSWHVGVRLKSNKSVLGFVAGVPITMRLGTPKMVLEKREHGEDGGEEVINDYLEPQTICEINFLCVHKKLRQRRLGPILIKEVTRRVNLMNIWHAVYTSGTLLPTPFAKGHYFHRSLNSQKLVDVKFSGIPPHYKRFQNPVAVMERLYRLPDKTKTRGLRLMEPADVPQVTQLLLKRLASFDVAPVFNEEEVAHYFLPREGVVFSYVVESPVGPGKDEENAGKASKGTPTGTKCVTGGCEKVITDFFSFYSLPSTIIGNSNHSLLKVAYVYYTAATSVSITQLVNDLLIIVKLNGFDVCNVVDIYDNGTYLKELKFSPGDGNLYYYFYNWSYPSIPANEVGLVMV

Structure (SMILES)	pEC50 [1]	pIC50 [2]
CC(C)Cc1ccc2ncccc2c1NS(=O)(=O)c1ccc(CCCOC[C@H]2COCCN2C)cc1 [S6, (S)-N-(6-isobutylquinolin-5-yl)-4-(3-((4-methylmorpholin-3-yl)methoxy)propyl)benzenesulfonamide]	6.60	
CC(C)Cc1ccc2ncccc2c1NS(=O)(=O)c1ccc(CCCN2CCN3CCC[C@@H]3C2)cc1 [compound 34, (R)-4-(3-(hexahydropyrrolo[1,2-a]pyrazin-2(1H)-yl)propyl)-N-(6-isobutylquinolin-5-yl)benzenesulfonamide]	7.40	
CC(C)Cc1ccc2ncccc2c1NS(=O)(=O)c1ccc(CCCO[C@H]2C[C@H]3CC[C@@H](C2)N3C)cc1 [compound 42, 42]	8.05	
CC(C)Cc1ccc2ncccc2c1NS(=O)(=O)c1ccc(CCCC2CCN(C)CC2)cc1 [compound 31, N-(6-isobutylquinolin-5-yl)-4-(3-(1-methylpiperidin-4-yl)propyl)benzenesulfonamide]	8.05	
CC(C)Cc1ccc2ncccc2c1NS(=O)(=O)c1ccc(CCCOC[C@@H]2CCCCN2)cc1 [S3, (S)-N-(6-isobutylquinolin-5-yl)-4-(3-(piperidin-2-ylmethoxy)propyl)benzenesulfonamide]	6.07	
CC(C)Cc1ccc2nn(C)cc2c1NS(=O)(=O)c1ccc(CCCO[C@@H]2C[C@H]3CC[C@@H](C2)N3C)cc1 [compound 60]		8.30
CC(C)Cc1ccc2ncccc2c1NS(=O)(=O)c1ccc(CCCCN2CCN3CCC[C@@H]3C2)cc1 [compound 35, (R)-4-(4-(hexahydropyrrolo[1,2-a]pyrazin-2(1H)-yl)butyl)-N-(6-isobutylquinolin-5-yl)benzenesulfonamide]	6.60	
CC(C)Cc1ccc2ncccc2c1NS(=O)(=O)c1ccc(CCCO[C@@H]2CCCN(C)C2)cc1 [compound 43, (R)-N-(6-isobutylquinolin-5-yl)-4-(3-((1-methylpiperidin-3-yl)oxy)propyl)benzenesulfonamide]	7.41	
CC(C)Cc1ccc2ncccc2c1NS(=O)(=O)c1ccc(CCCCC2CCN(C)CC2)cc1 [compound 32, N-(6-Isobutylquinolin-5-yl)-4-(4-(1-methylpiperidin-4-yl)butyl)benzenesulfonamide]	7.72	> 8.30
CC(C)Cc1ccc2ncccc2c1NS(=O)(=O)c1ccc(CCCCN2C[C@@H](C)N[C@@H](C)C2)cc1 [compound 40, 4-(4-((3S,5R)-3,5-dimethylpiperazin-1-yl)butyl)-N-(6-isobutylquinolin-5-yl)benzenesulfonamide]	6.46	
CC(C)Cc1ccc2ncccc2c1NS(=O)(=O)c1ccc(CCCCN2CCCN(C)CC2)cc1 [compound 37, N-(6-isobutylquinolin-5-yl)-4-(4-(4-methyl-1,4-diazepan-1-yl)butyl)benzenesulfonamide]	7.23	
CC(C)Cc1ccc2ncccc2c1NS(=O)(=O)c1ccc(CCCCC2CCNCC2)cc1 [compound 33, N-(6-isobutylquinolin-5-yl)-4-(4-(piperidin-4-yl)butyl)benzenesulfonamide]	7.68	
CC(C)Cc1ccc2ncccc2c1NS(=O)(=O)c1ccc(CCCOC[C@@H]2CCCN(C)C2)cc1 [S4, (R)-N-(6-isobutylquinolin-5-yl)-4-(3-((1-methylpiperidin-3-yl)methoxy)propyl)benzenesulfonamide]	8.00	
CC(C)Cc1ccc2ncccc2c1NS(=O)(=O)c1ccc(CCCOC[C@H]2COCCN2)cc1 [S5, (S)-N-(6-isobutylquinolin-5-yl)-4-(3-(morpholin-3-ylmethoxy)propyl)benzenesulfonamide]	6.15	
CC(C)Cc1ccc2ncccc2c1NS(=O)(=O)c1ccc(CCCN2CCCN(C)CC2)cc1 [compound 36, N-(6-isobutylquinolin-5-yl)-4-(3-(4-methyl-1,4-diazepan-1-yl)propyl)benzenesulfonamide]	7.74	
CC(C)Cc1ccc2ncccc2c1NS(=O)(=O)c1ccc(CCCC2CCNCC2)cc1 [S1, N-(6-isobutylquinolin-5-yl)-4-(3-(piperidin-4-yl)propyl)benzenesulfonamide]	7.60	
CC(C)Cc1ccc2ncccc2c1NS(=O)(=O)c1ccc(CCCCN2CCNCC2)cc1 [compound 39, N-(6-isobutylquinolin-5-yl)-4-(4-(piperazin-1-yl)butyl)benzenesulfonamide]	6.74	
CC(C)Cc1ccc2ncccc2c1NS(=O)(=O)c1ccc(CCCN2CCN3CCC[C@H]3C2)cc1 [S2, (S)-4-(3-(hexahydropyrrolo[1,2-a]pyrazin-2(1H)-yl)propyl)-N-(6-isobutylquinolin-5-yl)benzenesulfonamide]	6.82	
CC(C)Cc1ccc2nn(C)cc2c1NS(=O)(=O)c1ccc(CCCCC2CCN(C)CC2)cc1 [compound 54, N-(5-Isobutyl-2-methyl-2H-indazol-4-yl)-4-(4-(1-methylpiperidin-4-yl)butyl)benzenesulfonamide]		> 8.30
CC(C)Cc1ccc2ncccc2c1NS(=O)(=O)c1ccc(CCCOC[C@@H]2CNCCO2)cc1 [compound 44, (S)-N-(6-isobutylquinolin-5-yl)-4-(3-(morpholin-2-ylmethoxy)propyl)benzenesulfonamide]	7.41	
CC(C)Cc1ccc2ncccc2c1NS(=O)(=O)c1ccc(CCCO[C@@H]2C[C@H]3CC[C@@H](C2)N3C)cc1 [compound 41, 41]	7.04	
CC(C)Cc1ccc2ncccc2c1NS(=O)(=O)c1ccc(CCCN2CCN(C)CC2)cc1 [compound 38, N-(6-isobutylquinolin-5-yl)-4-(3-(4-methylpiperazin-1-yl)propyl)benzenesulfonamide]	7.08	
